Measured values as given in ChEMBL document CHEMBL1135278, “Thiophene derivatives: a new series of potent norepinephrine and serotonin reuptake inhibitors” (Bioorg Med Chem Lett, 2002).

How the values were obtained:
[1] = molecular target: Norepinephrine transporter (Rattus norvegicus, UniProt Q9WTR4); assay: Inhibition of [3H]-NE reuptake at Norepinephrine transporter in rat parietal/occipital cortex
[2] = molecular target: Sodium-dependent dopamine transporter (Rattus norvegicus, UniProt P23977); assay: Inhibition of [3H]DA reuptake at dopamine transporter in rat striatum; assay type: tissue-based
[3] = molecular target: Sodium-dependent serotonin transporter (Rattus norvegicus, UniProt P31652); assay: Inhibition of [3H]5-HT reuptake at serotonin transporter in rat mid brain
[4] = molecular target: Monoamine transporters; Norepinephrine & serotonin (Rattus norvegicus) (UniProt P31652+Q9WTR4); assay: Relative reuptake inhibition at norepinephrine and serotonin transporters; assay type: protein assay

Sodium-dependent dopamine transporter, sequence (P23977 whole entry): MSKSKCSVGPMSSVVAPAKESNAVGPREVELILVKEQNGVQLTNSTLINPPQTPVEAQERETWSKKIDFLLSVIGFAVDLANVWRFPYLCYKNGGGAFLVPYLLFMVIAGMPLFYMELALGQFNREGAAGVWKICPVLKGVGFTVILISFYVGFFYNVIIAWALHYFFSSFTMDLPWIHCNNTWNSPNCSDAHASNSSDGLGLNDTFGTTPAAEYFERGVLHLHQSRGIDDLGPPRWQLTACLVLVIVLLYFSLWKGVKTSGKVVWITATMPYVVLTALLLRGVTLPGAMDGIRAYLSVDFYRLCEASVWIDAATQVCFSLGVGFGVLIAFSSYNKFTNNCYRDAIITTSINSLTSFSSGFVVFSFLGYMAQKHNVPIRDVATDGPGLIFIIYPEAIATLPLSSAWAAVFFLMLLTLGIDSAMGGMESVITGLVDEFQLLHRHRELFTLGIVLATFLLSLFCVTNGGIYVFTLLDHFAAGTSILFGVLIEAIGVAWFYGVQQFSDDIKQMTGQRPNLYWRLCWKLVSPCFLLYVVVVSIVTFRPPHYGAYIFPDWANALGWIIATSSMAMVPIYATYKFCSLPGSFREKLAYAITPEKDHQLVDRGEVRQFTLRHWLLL
Sodium-dependent serotonin transporter, sequence (P31652 whole entry): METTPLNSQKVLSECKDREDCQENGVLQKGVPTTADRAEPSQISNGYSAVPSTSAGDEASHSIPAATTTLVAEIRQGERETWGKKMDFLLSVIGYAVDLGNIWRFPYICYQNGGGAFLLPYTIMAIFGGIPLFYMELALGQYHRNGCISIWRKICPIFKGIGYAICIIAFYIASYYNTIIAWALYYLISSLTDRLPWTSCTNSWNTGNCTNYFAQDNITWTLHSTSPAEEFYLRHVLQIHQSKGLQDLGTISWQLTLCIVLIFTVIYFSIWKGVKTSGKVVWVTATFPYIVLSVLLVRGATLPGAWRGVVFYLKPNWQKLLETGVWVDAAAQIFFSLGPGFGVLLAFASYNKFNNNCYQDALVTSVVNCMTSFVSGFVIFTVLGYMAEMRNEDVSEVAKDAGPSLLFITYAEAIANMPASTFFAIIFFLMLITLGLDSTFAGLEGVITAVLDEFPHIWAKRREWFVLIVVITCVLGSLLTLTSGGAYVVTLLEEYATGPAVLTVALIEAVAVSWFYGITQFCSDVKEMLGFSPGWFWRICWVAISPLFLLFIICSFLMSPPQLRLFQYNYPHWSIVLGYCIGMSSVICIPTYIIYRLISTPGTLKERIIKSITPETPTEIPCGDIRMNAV
Norepinephrine transporter, sequence (Q9WTR4 whole entry): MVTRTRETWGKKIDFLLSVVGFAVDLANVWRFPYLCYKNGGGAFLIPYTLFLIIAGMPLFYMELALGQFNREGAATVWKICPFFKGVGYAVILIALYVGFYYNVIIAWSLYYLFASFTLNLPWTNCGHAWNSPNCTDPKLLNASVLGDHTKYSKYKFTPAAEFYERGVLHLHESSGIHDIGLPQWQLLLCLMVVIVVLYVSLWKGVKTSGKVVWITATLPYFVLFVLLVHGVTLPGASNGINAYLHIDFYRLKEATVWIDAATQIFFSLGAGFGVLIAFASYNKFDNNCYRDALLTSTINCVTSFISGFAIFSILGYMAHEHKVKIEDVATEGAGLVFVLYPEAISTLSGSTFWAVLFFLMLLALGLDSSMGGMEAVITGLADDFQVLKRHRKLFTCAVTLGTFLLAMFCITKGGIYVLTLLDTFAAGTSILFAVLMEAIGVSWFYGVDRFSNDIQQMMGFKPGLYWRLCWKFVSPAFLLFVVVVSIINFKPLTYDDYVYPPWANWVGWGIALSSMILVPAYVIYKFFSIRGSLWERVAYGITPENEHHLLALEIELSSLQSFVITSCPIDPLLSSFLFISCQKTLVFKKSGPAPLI

Structure (SMILES) | Ki [1] | Ki [2] | Ki [3] | Ratio [4]
COC(=O)C1C2CC3CCC1N3C/C2=C\c1ccc(I)s1 (stereo unspecified) | 5 nM | 368 nM | 29 nM | 
CC(C)OC(=O)C1C2CC3CCC1N3C/C2=C\c1cccs1 (stereo unspecified) | 52.3 nM | 428 nM | 1150 nM | 
OCC1C2CC3CCC1N3C/C2=C\c1cccs1 (stereo unspecified) | ~300 nM | ~3000 nM | ~1000 nM | 0.3
CC(C)(C)C(=O)OCC1C2CC3CCC1N3C/C2=C\c1cccs1 (stereo unspecified) | 1180 nM | 1020 nM | 168 nM | 
COC(=O)C1C2CC3CCC1N3C/C2=C\c1cccs1 (stereo unspecified) | 26.4 nM | 268 nM | 2050 nM | 
COC(=O)C1C2CC3CCC1N3C/C2=C\c1ccc(C)s1 (stereo unspecified) | 4.9 nM | 403 nM | 179 nM | 
O=C(OCC1C2CC3CCC1N3C/C2=C\c1ccc(I)cc1)c1ccccc1 (stereo unspecified) |  |  | 0.1 nM | 
O=C(OCC1C2CC3CCC1N3C/C2=C\c1cccs1)c1ccccc1 (stereo unspecified) | 894 nM | 1750 nM | 1.53 nM | 
CC(=O)OCC1C2CC3CCC1N3C/C2=C\c1cccs1 (stereo unspecified) | 283 nM | 610 nM | 1530 nM | 
CC(=O)NCC1C2CC3CCC1N3C/C2=C\c1cccs1 (stereo unspecified) | 2430 nM | 6140 nM | 13300 nM | 
O=C(OCC1C2CC3CCC1N3C/C2=C\c1cccs1)c1ccc2ccccc2c1 (stereo unspecified) | 1230 nM | 1680 nM | 169 nM | 
O=C(OCC1C2CC3CCC1N3C/C2=C\c1ccc(I)c(Cl)c1)c1ccccc1 (stereo unspecified) |  |  | 0.06 nM | 
CC(C)(C)OC(=O)NCC1C2CC3CCC1N3C/C2=C\c1cccs1 (stereo unspecified) | 1700 nM | 2300 nM | 2360 nM | 
